# Like-named read-outs stand apart in the source and are kept apart here.
# Target: T1, F508delCFTR (Homo sapiens, UniProt P13569, DEL508-508)
# T1 construct: expressed in transfected cells; host or cells: CFBE41o- human lung-derived epithelial cells (CFBE4lo-F508delCFTR-HRP), doxycycline-inducible
# Test: Cell Surface Expression-Horse Radish Peroxidase (CSE-HRP) Assay;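 as to Maximum % activity (with co-corrector): co-corrector and positive control are both the same reference corrector at 2 µM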;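 as to Maximum % activity (without co-corrector): percent of the 2 µM on-plate positive control corrector response above DMSO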
# Format: cell-based
# Conditions: for Emax / Maximum % activity (with co-corrector): maximum at any tested concentration, normalized to on-plate positive control; for Emax: read-out: Maximum % activity (without co-corrector)
# Procedure: Cell Surface Expression-Horse Radish Peroxidase (CSE-HRP) Assay;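 as to Maximum % activity (with co-corrector): co-corrector and positive control are both the same reference corrector at 2 µM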;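 as to Maximum % activity (without co-corrector): percent of the 2 µM on-plate positive control corrector response above DMSO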
# The development was achieved by expressing the F508delCFTR mutation along with a horseradish peroxidase (HRP) in the fourth exofacial loop, and then measuring the HRP activity using luminescence readout from these cells, CFBE4lo-F508delCFTR-HRP, that were incubated overnight with the test corrector compounds, either without or with the co-corrector. […] The test compounds were then added either without or with a co-corrector at the required concentrations and further incubated for 18-24 hours at 33° C. The highest concentration tested was 20 μM with an 8-point concentration response curve using a 3-fold dilution in both the test compound without or with the co-corrector. Three replicate plates were run to determine one EC50. All plates contained negative controls (dimethyl sulfoxide, DMSO) and positive control (2 μM of 3-[(2R,4R)-4-({[1-(2,2-difluoro-1,3-benzodioxol-5-yl)cyclopropyl]carbonyl}amino)-7-methoxy-3,4-dihydro-2H-chromen-2-yl]benzoic acid) as well as on-plate concentration response of the positive control. […] The raw counts from the experiment were analyzed using Accelrys® Assay Explorer v3.3.
# 1−[3*SDPositive Control+3*SDNegative Control/Absolute(MeanPositive Control−MeanNegative Control)]
# wherein “SD” is standard deviation.
# The % activity measured at each of the 8 test concentrations of the test compound added either without or with a co-corrector (2 μM of 3-[(2R,4R)-4-({[1-(2,2-difluoro-1,3-benzodioxol-5-yl)cyclopropyl]carbonyl}amino)-7-methoxy-3,4-dihydro-2H-chromen-2-yl]benzoic acid) was normalized to the on-plate positive control using the following formulae:
# % activity(Test compound without co-corrector)=[(test compound without co-corrector response−DMSO response)/(positive control response−DMSO response)]*100
# % activity(Test compound with co-corrector)=[(test compound with co-corrector response−DMSO response)/(positive control response−DMSO response)]*100
# The maximum % activity achieved for the test compound either without or with a co-corrector at any tested concentration is presented in Table 4 along with the respective EC50's calculated using the following general sigmoidal curve with variable Hill slope equation (described as Model 42 in the Accelrys® Assay Explorer v3.3 software):
# General sigmoidal curve with concentration, response, top, bottom, EC50 and Hill slope. This model describes a sigmoidal curve with an adjustable baseline, a. The equation can be used to fit curves where response is either increasing or decreasing with respect to the independent variable, “x”.
# “x” is a concentration of drug under test. “y” is the response. “a” is the maximum response, and “d” is the minimum response “c” is the inflection point (EC50) for the curve. That is, “y” is halfway between the lower and upper asymptotes when x=c. “b” is the slope-factor or Hill coefficient. The sign of b is positive when the response increases with increasing dose and is negative when the response decreases with increasing dose (inhibition).
# [1] = test compound without co-corrector
# [2] = test compound without co-corrector, read-out: EC50 (without co-corrector)
# [3] = with co-corrector (2 μM of 3-[(2R,4R)-4-({[1-(2,2-difluoro-1,3-benzodioxol-5-yl)cyclopropyl]carbonyl}amino)-7-methoxy-3,4-dihydro-2H-chromen-2-yl]benzoic acid)
# [4] = with co-corrector (2 μM of 3-[(2R,4R)-4-({[1-(2,2-difluoro-1,3-benzodioxol-5-yl)cyclopropyl]carbonyl}amino)-7-methoxy-3,4-dihydro-2H-chromen-2-yl]benzoic acid), read-out: EC50 (with co-corrector)
# [5] = CSE-HRP, test compound without co-corrector, read-out: EC50 (without co-corrector)
# [6] = CSE-HRP, with co-corrector (2 μM of 3-[(2R,4R)-4-({[1-(2,2-difluoro-1,3-benzodioxol-5-yl)cyclopropyl]carbonyl}amino)-7-methoxy-3,4-dihydro-2H-chromen-2-yl]benzoic acid), read-out: EC50 (with co-corrector)
# [7] = CSE-HRP, with co-corrector (2 μM)
# T1 sequence (P13569 with tags, fused parts or gaps DEL508-508): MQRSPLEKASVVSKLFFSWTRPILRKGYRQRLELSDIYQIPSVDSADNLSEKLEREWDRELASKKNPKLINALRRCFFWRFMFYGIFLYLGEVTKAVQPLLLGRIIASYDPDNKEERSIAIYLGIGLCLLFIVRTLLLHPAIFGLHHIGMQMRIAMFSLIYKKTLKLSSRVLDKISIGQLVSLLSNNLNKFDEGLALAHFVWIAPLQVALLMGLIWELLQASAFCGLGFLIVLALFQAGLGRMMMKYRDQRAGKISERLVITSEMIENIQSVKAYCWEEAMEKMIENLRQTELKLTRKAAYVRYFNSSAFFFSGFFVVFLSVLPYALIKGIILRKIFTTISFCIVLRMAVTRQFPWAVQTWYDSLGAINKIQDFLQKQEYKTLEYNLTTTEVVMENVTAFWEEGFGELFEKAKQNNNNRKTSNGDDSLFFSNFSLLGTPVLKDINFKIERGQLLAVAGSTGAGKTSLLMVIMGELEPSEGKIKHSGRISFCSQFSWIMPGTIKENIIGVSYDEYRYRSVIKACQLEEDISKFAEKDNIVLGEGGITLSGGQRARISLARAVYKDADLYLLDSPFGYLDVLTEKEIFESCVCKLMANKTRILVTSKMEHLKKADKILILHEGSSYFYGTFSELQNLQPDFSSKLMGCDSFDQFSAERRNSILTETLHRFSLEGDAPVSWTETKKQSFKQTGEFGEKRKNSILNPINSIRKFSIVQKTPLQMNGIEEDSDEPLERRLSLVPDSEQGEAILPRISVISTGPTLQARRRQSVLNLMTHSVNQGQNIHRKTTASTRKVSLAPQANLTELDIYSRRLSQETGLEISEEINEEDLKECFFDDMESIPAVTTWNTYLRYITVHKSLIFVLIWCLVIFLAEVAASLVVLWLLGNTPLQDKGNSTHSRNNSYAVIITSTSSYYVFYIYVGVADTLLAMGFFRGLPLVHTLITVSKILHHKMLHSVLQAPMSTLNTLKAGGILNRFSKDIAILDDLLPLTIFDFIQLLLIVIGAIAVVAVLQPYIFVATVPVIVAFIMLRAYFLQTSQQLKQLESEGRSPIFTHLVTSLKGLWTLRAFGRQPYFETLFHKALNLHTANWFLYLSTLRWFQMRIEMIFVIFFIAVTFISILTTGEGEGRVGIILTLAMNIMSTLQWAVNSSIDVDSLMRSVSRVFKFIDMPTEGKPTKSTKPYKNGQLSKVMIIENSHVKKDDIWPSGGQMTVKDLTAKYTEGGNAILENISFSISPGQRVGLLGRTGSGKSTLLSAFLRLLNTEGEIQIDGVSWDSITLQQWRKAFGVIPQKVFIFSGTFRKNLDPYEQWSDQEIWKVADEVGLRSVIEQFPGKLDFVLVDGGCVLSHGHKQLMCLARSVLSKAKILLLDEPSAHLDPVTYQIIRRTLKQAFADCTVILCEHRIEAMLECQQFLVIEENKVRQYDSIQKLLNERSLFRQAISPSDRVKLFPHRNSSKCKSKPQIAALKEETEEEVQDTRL
Emax [1] [%],EC50 [2] [nM],Maximum % activity (with co-corrector) [3],EC50 [4] [nM],Maximum % activity (with co-corrector) (with co-corrector (2 μM)),Emax (without co-corrector) [%],EC50 [5] [nM],EC50 [6] [nM],Maximum % activity (with co-corrector) [7],"Emax (CSE-HRP, without co-corrector) [%]",Structure (SMILES)
> 200,1000 to 10000,+++ (≥350),< 1000,,,,,,,COc1ncc(C2CCC2)cc1CN[C@H]1[C@H](C(C)(C)C)[C@@H](C(=O)O)N(C(=O)[C@@H]2CCC[C@@H](F)C2)[C@H]1c1ccccc1 [II-532]
< 100,1000 to 10000,+++ (≥350),1000 to 10000,,,,,,,COc1cccc(N[C@@H]2[C@@H](C(C)(C)C)[C@H](C(=O)O)N(C(=O)C3CCCCC3)[C@@H]2c2ccccc2)n1 (racemic) [III-8]
< 100,1000 to 10000,++ (≥150 and <350),1000 to 10000,,,,,,,COc1cc2c(cc1CN[C@@H]1[C@H](C(C)(C)C)[C@@H](C(=O)O)N(C(=O)OC(C)C)[C@H]1c1ccccc1)CCC2 [II-555]
,1000 to 10000,,1000 to 10000,+++ (≥350),100 to 200,,,,,"COc1ncc(C(F)(F)F)cc1CN[C@H]1[C@H](C(C)(C)C)[C@@H](C(=O)O)N(C(=O)[C@@H]2CCCCO2)[C@H]1c1ccccc1 [Example 21, (2S,3S,4S,5S)-3-tert-butyl-4-({[2-methoxy-5-(trifluoromethyl)pyridin-3-yl]methyl}amino)-1-[(2S)-oxane-2-carbonyl]-5-phenylpyrrolidine-2-carboxylic acid]"
,,,,,,1000 to 10000,1000 to 10000,+++ (≥350),100 to 200,COc1ccc(Cl)cc1CN[C@H]1[C@H](C(C)(C)C)[C@@H](C(=O)O)N(C(=O)C2CCCO2)[C@H]1c1ccccc1 (mixture of isomers) [II-61]
,< 1000,,< 1000,+++ (≥350),100 to 200,,,,,COc1ccc(C(C)(C)C)cc1CN[C@H]1[C@H](C(C)(C)C)[C@@H](C(=O)O)N(C(=O)OCc2ccccc2Cl)[C@H]1c1ccccc1 [Example I-154]
< 100,> 10000,++ (≥150 and <350),1000 to 10000,,,,,,,COc1cccnc1CN[C@@H]1[C@@H](C(C)(C)C)[C@H](C(=O)O)N(C(=O)C2CCCCC2)[C@@H]1c1ccccc1 (racemic) [III-21]
,,,,,,1000 to 10000,1000 to 10000,+++ (≥350),100 to 200,COc1ncc(F)cc1CN[C@@H]1[C@@H](C(C)(C)C)[C@H](C(=O)O)N(C(=O)C2CCCCC2)[C@@H]1c1ccccc1 (racemic) [II-30]
,1000 to 10000,,1000 to 10000,++ (≥150 and <350),< 100,,,,,Cc1cc(C(F)(F)F)cc(N[C@H]2[C@H](C(C)(C)C)[C@@H](C(=O)O)N(C(=O)C3C4CCCC43)[C@H]2c2cccnc2N(C)C)n1 (stereo partly drawn) [Example I-222]
,> 10000,,1000 to 10000,++ (≥150 and <350),< 100,,,,,COc1ccc(OC(F)F)c(CN[C@@H]2[C@@H](C(C)(C)C)[C@H](C(=O)O)N(C(=O)C3CCCCC3)[C@@H]2c2ccccc2)c1 (racemic) [Example I-14]
100 to 200,1000 to 10000,+++ (≥350),1000 to 10000,,,,,,,COc1ccc(C(F)(F)F)nc1CN[C@H]1[C@H](C(C)(C)C)[C@@H](C(=O)O)N(C(=O)C2CCCCC2)[C@H]1c1ccccc1 [II-408]
,,,,,,1000 to 10000,1000 to 10000,+++ (≥350),100 to 200,CCOc1cc2c(cc1CN[C@H]1[C@H](C(C)(C)C)[C@@H](C(=O)O)N(C(=O)C3CCCCC3)[C@H]1c1ccccc1)CCC2 [II-129]
,,,,,,1000 to 10000,1000 to 10000,+++ (≥350),< 100,Cc1ccc(C)c(CN[C@H]2[C@H](C(C)(C)C)[C@@H](C(=O)O)N(C(=O)C3CCCCC3)[C@H]2c2ccccc2)c1 [II-117]
,,,,,,1000 to 10000,1000 to 10000,+++ (≥350),> 200,COc1ccc(C(C)(C)C)cc1CN[C@H]1[C@H](C(C)(C)C)[C@@H](C(=O)O)N(C(=O)C(C)CC(F)(F)F)[C@H]1c1ccccc1 (stereo partly drawn) [II-304]
,,,,,,< 1000,< 1000,+++ (≥350),> 200,"COc1ccc(C(C)(C)C)cc1CN[C@H]1[C@H](C(C)(C)C)[C@@H](C(=O)O)N(C(=O)C2CCc3ccccc3O2)[C@H]1c1ccccc1 (single isomer, unassigned) [II-164]"
,,,,,,1000 to 10000,1000 to 10000,+++ (≥350),> 200,COc1ccc(C(C)(C)C)cc1CN[C@H]1[C@H](C(C)(C)C)[C@@H](C(=O)O)N(C(=O)CC2CCCOC2)[C@H]1c1ccccc1 (stereo partly drawn) [II-179]
,,,,,,< 1000,1000 to 10000,++ (≥150 and <350),< 100,COc1ccc(CN[C@H]2[C@H](C(C)(C)C)[C@@H](C(=O)O)N(C(=O)C3CCCCC3)[C@H]2c2ccccc2)c(C(F)(F)F)c1 [II-109]
,,,,,,< 1000,< 1000,+++ (≥350),100 to 200,COc1ncc(C(F)(F)F)cc1CN[C@H]1[C@H](C(C)(C)C)[C@@H](C(=O)O)N(C(=O)C2CCCCC2)[C@H]1c1ccccc1C [Example I-258]
,1000 to 10000,,1000 to 10000,+++ (≥350),> 200,,,,,COc1ccc(C(C)(C)C)cc1CN[C@H]1[C@H](C(C)(C)C)[C@@H](C(=O)O)N(C(=O)C2CCOC2C(C)C)[C@H]1c1ccccc1 (stereo partly drawn) [Example I-218]
,< 1000,,< 1000,+++ (≥350),< 100,,,,,CC(C)(C)[C@H]1[C@H](Nc2cccc(C(F)(F)F)c2)[C@H](c2ccccc2)N(C(=O)C2CCCCC2)[C@@H]1C(=O)O [Example I-56]
> 200,1000 to 10000,+++ (≥350),1000 to 10000,,,,,,,COc1ccc(C(F)(F)F)cc1CN[C@H]1[C@H](C(C)(C)OC)[C@@H](C(=O)O)N(C(=O)C2CCCCC2)[C@H]1c1cccnc1N(C)C [II-437]
,,,,,,1000 to 10000,1000 to 10000,+++ (≥350),> 200,COc1ccc(C(F)(F)F)cc1CN[C@H]1[C@H](C(C)(C)C)[C@@H](C(=O)O)N(C(=O)[C@@H]2OCC[C@@H]2C)[C@H]1c1ccccc1 (relative stereo) [II-274]
> 200,1000 to 10000,,< 1000,+++ (≥350),,,,,,COc1ccc(C(C)(C)C)cc1CN[C@H]1[C@H](C(C)(C)C)[C@@H](C(=O)O)N(C(=O)C(C)Oc2cc(C)cc(C)c2)[C@H]1c1ccccc1 (stereo partly drawn) [III-190]
,1000 to 10000,,1000 to 10000,+++ (≥350),> 200,,,,,COc1ccc(C(C)(C)C)cc1CN[C@H]1[C@H](C(C)(C)C)[C@@H](C(=O)O)N(C(=O)OC(C)C)[C@H]1c1ccccc1 [Example I-81]
